Data published in patent publication US8343964B2, “Indolic derivatives, their preparation processes and their uses in particular as antibacterials” (Universite Joseph Fourier, priority 2007, dated 2013).
Converted amounts (≈) assume the structure as drawn. Where two headings read alike, the source gives them in different places.

Columns and labels:
[1] = test system: S. aureus ITS-1199B (overexpression of the efflux pump NorA); type: cell-based, Staphylococcus aureus; conditions: resistant strain R NorA; for MIC (μg/ml) of compound in the presence of ciprofloxacin at 4 μg/ml (c/4): ciprofloxacin 4 μg/ml (c/4); for MIC (μg/ml) of compound in the presence of ciprofloxacin at 8 μg/ml (c/2): ciprofloxacin 8 μg/ml (c/2)
Description: (§1) The two strains used are Staphylococcus aureus (ATCC 25923, sensitive Gram-positive strain) denoted S, and S. aureus ITS-1199 (without efflux), as well as its derivative S. aureus ITS-1199B (Kaatz, G. W., Seo, S. M., Antimicrob. Agents Chemother., 1995, 39, 2650-2655) having a resistance to the fluoroquinolones due to the overexpression of the efflux pump NorA and denoted R NorA. The bacteria are cultured at 37° C. in Mueller-Hinton (MH, Bio Rad) or Luria-Bertani (LB, Difco) Medium.
The experiences are carried out as above, but using the resistant strain, and looking at the effect of the mixture of the molecule to be tested and the antibiotic to which the bacterium is resistant. Thus, the method of a series of dilutions in Mueller-Hinton medium is used, also starting from a molecule concentration of 100 or 128 μg/ml.

[2] = test system: Staphylococcus aureus (ATCC 25923, sensitive Gram-positive strain); test: Determination of the antibacterial activity: MIC in liquid Mueller-Hinton medium (intrinsic antibacterial activity); type: cell-based; conditions: read-out: MIC / Antibacterial Activity (AA)
Description: as §1
The experiments described hereafter are carried out following the recommendations of the Comité de l'Antibiogramme de la Société Française de Microbiologic (http://www.sfm.asso.fr/nouv/general.php See also Courvalin, P., Goldstein, F., Philippon, A., Sirot J. L'antibiogramme, 1985, M.P.C.-Videom editor). The antibacterial activity of the molecules was determined in liquid medium using a Biomek 2000 robot (Beckman) and micro-titration plates. The final volume in each well is 200 μl. A maximum volume of 5 μl of a solution of the molecule in DMSO is added to each well containing 10^6 CFU/ml (Colony Forming Units) of bacteria in MH medium. The final concentration of the molecule to be tested must be 100 or 128 μg/ml. […] Ampicillin is used as a positive control and the same volume of DMSO as that used to introduce the molecule (generally 2 to 5 μl) as a negative control.
The experiments are repeated three times.

[3] = test system: KB (human mouth carcinoma); test: In vitro cytotoxicity on KB cells; type: cell-based; conditions: concentration of 10^−5 M
Description: (§2) The in vitro cytotoxicity results, measured at a concentration of 10^−5 M, are described below. The cytotoxicity was measured on 5 cell lines—KB (human mouth carcinoma), MCF7 (breast carcinoma) and MCF7R (resistant strain), Vero (monkey kidney) and HCT116 (human colon tumour).

[4] = In vitro cytotoxicity on Vero cells; type: cell-based; conditions: monkey, concentration of 10^−5 M, read-out: Average cytotoxicity (% inhibition), Vero cells
Description: as §2

[5] = In vitro cytotoxicity on HCT116 cells; type: cell-based; conditions: human, concentration of 10^−5 M, read-out: Average cytotoxicity (% inhibition), HCT116 cells
Description: as §2

[6] = In vitro cytotoxicity on MCF7 cells; type: cell-based; conditions: human, MCF7 cells (breast carcinoma); concentration of 10^−5 M; read-out: Average cytotoxicity (% inhibition), MCF7 cells
Description: as §2

[7] = in vitro; type: cell-based; conditions: human
Description: as §2

[8] = ATCC25923, compound alone, lowest concentration allowing no growth after 18 hours at 37° C., 10^6 CFU/ml
[9] = HCT116 cells (human colon tumour)

SMILES: O=C(CONC(=O)OCC1c2ccccc2-c2ccccc21)NC(COCc1ccccc1)c1c[nH]c2ccccc12 (stereo not drawn) [Compound (48)]
- MIC (μg/ml) of compound in the presence of ciprofloxacin at 4 μg/ml (c/4) [1]: 2 µg/mL

SMILES: NCC(N)c1c[nH]c2cc(Br)ccc12 (stereo not drawn) [(28)]
- MIC [2, 8]: 25 µg/mL (≈ 98.4 µM)

SMILES: Cl.Cl.NCC(N)c1c[nH]c2ccc(Br)cc12 (stereo not drawn) [(27), 1,2-diamino-1-(5′-bromo-3′-indolyl)ethane dihydrochloride]
- MIC [2, 8]: 25 µg/mL
- Average cytotoxicity (% inhibition), KB cells [3]: 0%
- cytotoxicity [4]: 14%
- cytotoxicity [5]: 26%

SMILES: CC(C)(C)OC(=O)NCC(c1c[nH]c2ccc(Br)cc12)[N+]([O-])=Cc1ccccc1 (stereo not drawn) [(20 bis)]
- MIC (μg/ml) of compound in the presence of ciprofloxacin at 4 μg/ml (c/4) [1]: 1 µg/mL
- MIC (μg/ml) of compound in the presence of ciprofloxacin at 8 μg/ml (c/2) [1]: 1 µg/mL

SMILES: CC(C)CC(c1c[nH]c2ccccc12)N(O)C(=O)OC(C)(C)C (stereo not drawn) [Compound (47)]
- MIC [2, 8]: 64 µg/mL (≈ 201 µM)
- MIC (μg/ml) of compound in the presence of ciprofloxacin at 4 μg/ml (c/4) [1]: 32 µg/mL

SMILES: CC(NCc1ccccc1)c1c[nH]c2ccc(Br)cc12 (stereo not drawn) [Compound (15)]
- MIC ([2]; ATCC25923, 18 h): 25 µg/mL (≈ 75.9 µM)

SMILES: CC(C)(C)OC(=O)NCC(N)c1c[nH]c2cc(Br)ccc12 (stereo not drawn) [(26)]
- MIC ([2]; ATCC25923, 18 h): 25 µg/mL (≈ 70.6 µM)

SMILES: CC(C)(C)OC(=O)NCC(NO)c1c[nH]c2ccc(Br)cc12 (stereo not drawn) [(21), 1-N-(hydroxy)amino-2-[N′-(tert-butoxycarbonyl)amino]-1-(5′-bromo-3′-indolyl) ethane]
- MIC ([2]; ATCC25923, 18 h): 50 µg/mL (≈ 135 µM)
- Average cytotoxicity (% inhibition), KB cells [3]: 0%
- cytotoxicity ([4]; Vero cells (monkey kidney)): 11%
- cytotoxicity [5, 9]: 28%

SMILES: CC(c1c[nH]c2ccccc12)N(O)Cc1ccccc1 (stereo not drawn) [(37)]
- MIC (μg/ml) of compound in the presence of ciprofloxacin at 4 μg/ml (c/4) [1]: >8 µg/mL
- MIC (μg/ml) of compound in the presence of ciprofloxacin at 8 μg/ml (c/2) [1]: >8 µg/mL

SMILES: COc1ccc(CN(O)C(C)c2c[nH]c3ccc(Br)cc23)cc1 (stereo not drawn) [Compound (3)]
- MIC ([2]; ATCC25923, 18 h): 100 µg/mL (≈ 266 µM)

SMILES: COc1ccc(CN(O)C(CC(C)C)c2c[nH]c3ccccc23)c(OC)c1 (stereo not drawn) [(40)]
- MIC (μg/ml) of compound in the presence of ciprofloxacin at 8 μg/ml (c/2) [1]: >8 µg/mL
- Average cytotoxicity (% inhibition), KB cells [3]: 13%
- cytotoxicity ([4]; Vero cells (monkey kidney)): 32%
- cytotoxicity [5, 9]: 46%

SMILES: CC(C)(C)OC(=O)NCC(N)c1c[nH]c2ccccc12 (stereo not drawn) [(23)]
- MIC (μg/ml) of compound in the presence of ciprofloxacin at 8 μg/ml (c/2) [1]: 4 µg/mL
- Average cytotoxicity (% inhibition), KB cells [3]: 2%
- cytotoxicity ([4]; Vero cells (monkey kidney)): 11%
- cytotoxicity [5, 9]: 5%

SMILES: CC(C)(C)OC(=O)NCC(c1c[nH]c2ccc(Br)cc12)N(O)Cc1ccccc1 (stereo not drawn) [Compound (4)]
- MIC ([2]; ATCC25923, 18 h): 25 µg/mL (≈ 54.3 µM)

SMILES: CC(c1c[nH]c2ccc(Br)cc12)/[N+]([O-])=C\c1ccccc1 (stereo not drawn) [(43)]
- MIC ([2]; ATCC25923, 18 h): 100 µg/mL (≈ 291 µM)

SMILES: CC(C)(C)OC(=O)NCC(c1c[nH]c2ccc(Br)cc12)/[N+]([O-])=C/c1ccccc1 (stereo not drawn) [Compound (20 bis), N-(benzylidene)-2-[N′-(tert-butoxycarbonyl)amino]-1-(5′-bromo-3′-indolyl) ethanamine N-oxide]
- MIC (μg/ml) of compound in the presence of ciprofloxacin at 4 μg/ml (c/4) [1]: c/2 = 1 c/4 = 1 μg/ml
- MIC (μg/ml) of compound in the presence of ciprofloxacin at 8 μg/ml (c/2) [1]: c/2 = 1 c/4 = 1 μg/ml
- cytotoxicity [6]: 23.3%
- Average cytotoxicity (% inhibition), KB cells [3]: 38.3%
- cytotoxicity [7]: 38.1%

SMILES: CC(C)(C)OC(=O)NCC(NC(=O)OC(C)(C)C)c1c[nH]c2cc(Br)ccc12 (stereo not drawn) [(36)]
- MIC (μg/ml) of compound in the presence of ciprofloxacin at 4 μg/ml (c/4) [1]: 8 µg/mL

SMILES: CC(C)(C)OC(=O)NCC(N)c1c[nH]c2ccc(Br)cc12 (stereo not drawn) [(25), 1-amino-2-[N′-(tert-butoxycarbonyl)amino]-1-(5′-bromo-3′-indolyl) ethane]
- MIC ([2]; ATCC25923, 18 h): 25 µg/mL (≈ 70.6 µM)

SMILES: Cl.Cl.NCC(NO)c1c[nH]c2ccc(Br)cc12 (stereo not drawn) [(32), 1-(N-hydroxy)-1,2-diamino-1-(5′-bromo-3′-indolyl)ethane dihydrochloride]
- MIC [2, 8]: 3 µg/mL
- Average cytotoxicity (% inhibition), KB cells [3]: 23%
- cytotoxicity [4]: 20%
